Assay results reported in patent US8173428B2, “LNA oligonucleotides and the treatment of cancer” (Santaris Pharma A/S, priority 2004, dated 2012).
pIC50: −log10 of the molar value. Oligonucleotides are written 5' to 3', each unit as a sugar letter and its base; * is a phosphorothioate linkage, no mark a phosphodiester; rarer units and linkages stand in square brackets, end groups in braces. Plain capitals give the bases only. l = locked nucleic acid (LNA); [5mC] = 5-methylcytosine; d = 2'-deoxy (DNA)

Experiments:
[1] = tested on: HeLa cells; assay: Annexin V-FITC/PI flow cytometry analysis; format: cell-based, human; conditions: 5 nM or 25 nM
Protocol: Culturing of cells: 15PC3 was cultured in DMEM (Sigma) containing 10% fetal bovine serum, Glutamax I and gentamicin at 37° C., 95% humidity and 5% CO2. The cervical carcinoma cell line HeLa were cultured in MEM (Sigma) containing 10% fetal bovine serum, Glutamax I and gentamicin at 37° C., 95% humidity and 5% CO2. When reaching 60-70% confluency, the cells were transfected using Lipofectamine 2000 (5 μg/ml).
0.4×10^6 HeLa cells were seeded in T25 flasks one day prior to transfection. On the day of transfection, the cells were washed once in 37° C. OptiMEM followed by addition of 2.8 ml OptiMEM containing 5 μg/ml Lipofectamine-2000 (In vitrogen). Cells were incubated for 7 min before adding 700 μl oligonucleotides diluted in OptiMEM to a final concentration of 5 nM or 25 nM, Mock transfected cells served as control. After 4 hours of treatment cells were washed in OptiMEM and 3 ml culture medium was added. Following oligonucleotide treatment cells were allowed to recover for 48 hours before they were harvested by scraping and washed twice in PBS. 0.2×10^6 cells were incubated with 5 μl Annexin V-FITC and 10 μl propidium iodide (PI-10 mg/ml) and incubated for 15 min at room temperature in the dark. […] Moreover, TRAIL (Apo2L) induced HeLA cells (0.5 μg/ml) were used as positive control. (See FIG. 4)

[2] = tested on: human Survivin RNA; assay: Survivin mRNA knockdown in transfected 15PC3 cells by real-time PCR; format: cell-based
Protocol: Cell culturing and transfections: 15PC3 cells were seeded in 12-well plates and grown for two days at 37° C. (5% CO2) in DMEM supplemented with 10% FBS, Glutamax I and Gentamicin. When the cells were 60-70% confluent, they were transfected in duplicates with different concentrations of oligonucleotides (0.2-25 nM) using Lipofectamine 2000 (10 μg/ml). Transfections were carried out essentially as described by Dean et al. (1994, JBC 269:16416-16424). In short, cells were incubated for 10 min. with Lipofectamine in OptiMEM followed by addition of oligonucleotide to a total volume of 0.5 ml transfection mix per well. […] Cells were then harvested for protein and RNA analysis.
Total RNA was isolated using RNeasy mini kit (Qiagen). Cells were washed with PBS, and Cell Lysis Buffer (RTL, Qiagen) supplemented with 1% mercaptoethanol was added directly to the wells. After a few minutes, the samples were processed according to manufacturer's instructions.
First strand synthesis was performed using OmniScript Reverse Transcriptase kit according to the manufacturer's instructions (Qiagen). For each sample, 0.5 μg total RNA was adjusted to 12 μl and mixed with 0.2 μl poly (dT)12-18 (0.5 μg/μl) (Life Technologies), 2 μl dNTP mix (5 mM each), 2 μl 10× RT buffer, 0.5 μl RNAguard™ RNase Inhibitor (33 units/ml, Amersham) and 1 μl OmniScript Reverse Transcriptase followed by incubation at 37° C. for 60 min. and heat inactivation at 93° C. for 5 min.
To determine the relative Survivin mRNA level in oligonucleotide treated and untreated cells, the generated cDNA was used in quantitative PCR analysis using an iCycler from BioRad. The cDNA was diluted 5-fold and 8 μl was mixed with 52 μl Taqman probe master mix containing 30 μl Platinum Quantitative PCR SuperMix UDG 2×PCR master mix (Invitrogen), 3 μl 20× Taqman probe and primer mix (forward primer: 5′[…] (SEQ ID NO:29), final 0.9 μM. Reverse primer: 5′[…] (SEQ ID NO:30), final 0.6 μM and taqman probe: FAM-[…]-TAMRA (SEQ ID NO:31), final 0.1 μM) and 19 μl H2O. The 60 μl were dispersed in two wells (96 well plates) with […] in each well. For human Bcl-2 the PCR primers were: […]
The primers and probe were obtained from […] (France). To normalize any variance in sample preparation, the endogenous GAPDH mRNA was quantified using a pre-developed Taqman assay reagent from Applied Biosystems (4310884E) according to manufacturer's Instructions. Two-fold dilutions of cDNA, synthesised from untreated 15PC3 cells (expressing both Survivin and GAPDH), was used to prepare standard curves for the assays. The PCR program was as follows: 50° C. for 2 min., 95° C. for 10 min. followed by 40 cycles of 95° C. 15 sec., 60° C. 1 min. Relative quantities of Survivin mRNA were determined from the calculated threshold cycle using the iCycler IQ Real Time Detection System software.
In accordance with the present invention, a series of oligonucleotides were designed to target different regions of the human Survivin RNA, using published sequences (GenBank accession number NM_001168).
LNA oligonucleotides were evaluated for their potential to knockdown Survivin mRNA in 15PC3 cells. The data are presented as percentage down-regulation relative to mock transfected cells. Transcript steady state was monitored by Real-time PCR and normalised to the GAPDH transcript steady state, see Table 3. Note that all LNA C are 5-methyl-Cytosine.

[3] = tested on: complementary RNA; assay: Measurement of melting temperature (Tm) of the duplex; format: binding; conditions: 3 μM, 10 mM sodium phosphate/100 mM NaCl/0.1 nM EDTA, pH 7.0
Protocol: Measurement of melting temperature (Tm) of the compounds: A 3 μM solution of SEQ ID NO. 2 in 10 mM sodium phosphate/100 mM NaCl/[…], pH 7.0 was mixed with its complement DNA/RNA 3 μM in 10 mM sodium phosphate/100 mM NaCl/[…], pH 7.0 at 90° C. for a minute and allowed to cool to room temperature. The Tm of the duplex was then determined by increasing the temperature 1° C./min. from 25 to 95° C. The Tm of SEQ ID NO.

[4] = tested on: mice; assay: i.v. acute toxicity study in mice; format: in vivo
From the text: For SEQ ID NO. 2 the following was found among others in preclinical toxicity studies: […]

[5] = Survivin mRNA down-regulation relative to mock, normalised to GAPDH, standard deviation in brackets, at least three experiments

5′-^MeCsTs^MeCsAsastscscsastsgsgs^MeCsAsGsc-3′ (l[5mC]*lT*l[5mC]*lA*dA*dT*dC*dC*dA*dT*dG*dG*l[5mC]*lA*lG*dC) [SEQ ID NO. 2]
Induction of early and late apoptosis (Annexin V-FITC/PI staining) [1]: dose dependent induction of early and late apoptosis | Survivin mRNA expression ([2]; 2 nM combined with 10 nM Taxol, 24 hours and 48 hours, relative to mock (0.1% DMSO)): down-regulated | Survivin mRNA expression ([2]; 2 nM, 24 hours and 48 hours, relative to mock (0.1% DMSO)): down-regulated | Survivin mRNA expression ([2]; 10 nM, 24 hours, single agent or combined with control oligonucleotides): have effects on Survivin and Bcl-2 expression | pIC50 [2, 5]: 8.54 | IC75 [nM] [2, 5]: 4.8 (0.3) nM | Tm (° C.) complementary RNA [3]: 75.3 °C | maximum non-lethal dose [4]: 1000 mg/kg
